The subject of one assay is corn rust. The assay can be described thus: protectant activity in vivo against corn rust. As to conditions: for control effect against corn rust (%): protectant activity.
The test system of a further assay is armyworm. As to the kind of experiment: bioactivity test against armyworm, airbrush spray. Type of assay: in vivo. The method, then:
(§1) Compounds were dissolved in mixed solvent (acetone:methanol=1:1), and diluted to required concentration with water containing 0.1% of tween 80.
(§2) Diamond back moth, armyworm, peach aphid and carmine spider mite were used as targets and the method of spraying by airbrush was used for determination of insecticidal biassays.
The method of spraying by airbrush: The corn leaves were made into plates of 2 cm diameter by use of punch. A test solution (0.5 ml) was sprayed by airbrush at the pressure of 0.7 kg/cm^2 to both sides of every plate. 10 Second instar larvae were put into the petri-dishes after the leaf disc air-dried and 3 replicates were set for each treatment. Then the insects were maintained in observation room (25 °C, 60˜70% R.H.). Scores were conducted and mortalities were calculated after 72 h.

The test system of a further assay is carmine spider mite. As to the kind of experiment: bioactivity test against carmine spider mite, airbrush spray. Type of assay: in vivo. The settings on record: for control against carmine spider mite: mortality after 72 hrs. The method, then: as §1, §2
The method: Broadbean shoots with two true leaves in pot were taken, the healthy adults of carmine spider mite were inoculated to the leaves. The adults were counted and then sprayed with airbrush at the pressure of 0.7 kg/cm^2 and at dose of 0.5 ml. 3 replicates were set for each treatment. And then they were maintained in standard observation room. Scores were conducted and mortalities were calculated after 72 hrs.

Another assay relates to wheat powdery mildew. The assay can be described thus: protectant activity in vivo against wheat powdery mildew. The settings on record: for control effect against wheat powdery mildew (%): protectant activity.
In assay [1] the test system is Green peach aphids (Myzus Persicae Sulzer). As to the kind of experiment: bioactivity test against green peach aphid, airbrush foliar spray. Type of assay: in vivo. As to conditions: death rate after 48 hrs. The method, then:
as §1, §2
Method: Filter papers were put in culture dishes (Diameter=6 cm), and water was dripped on filter papers for preserving moisture. Green peach aphids (Myzus Persicae Sulzer) were maintained on cabbage. Leaves (Diameter=3 cm) of approximately 15-30 aphids were put in the culture dishes. Bioactivity tests were used the method of Airbrush Foliar Spray, pressure=10 psi (0.7 kg/cm2), spray volume=0.5 mL. The studies were conducted at […] 25±1 C in incubator cabinets with 60±5% RH. Survey the survival aphids after 48 hrs and calculate the death rates.

In another assay the test system is cucumber downy mildew. The assay can be described thus: protectant activity in vivo against cucumber downy mildew. As to conditions: for pest or weed control at 100 ppm: read-out: protectant activity against cucumber downy mildew in vivo, 100 ppm.
A further assay deals with Diamond back moth. As to the kind of experiment: insecticidal activity against diamond back moth, airbrush spray. As to conditions: 600 ppm, mortality after 72 hrs. Type of assay: in vivo. The method, then:
as §1, §2
The method of spraying by airbrush: The cabbage leaves were made into plates of 2 cm diameter by use of punch. A test solution (0.5 ml) was sprayed by airbrush at the pressure of 0.7 kg/cm^2 to both sides of every plate. 10 Second instar larvae were put into the petri-dishes after the leaf disc air-dried and 3 replicates were set for each treatment. Then the insects were maintained in observation room (25° C., 60˜70% R.H.). Scores were conducted and mortalities were calculated after 72 hrs.

`CCc1c(Cl)c(NCCc2ccc(Oc3ccc(C(F)(F)F)cc3)cc2)nc[n+]1CC(=O)c1ccccc1.[Br-]` [CK5, reference compound]: the “control effect against corn rust (%)” value in the assay with corn rust (6.25 mg/L) is given as 30%; in the assay on corn rust (25 mg/L), 40%; in the assay with corn rust (100 mg/L), 98%; in the assay on corn rust (400 mg/L), 95%. Besides, the “Insecticidal activity against armyworm (%)” value in the assay on armyworm (10 mg/L) is on record as 0%; in the assay on armyworm (100 mg/L) it was 56%; in the assay on armyworm (600 mg/L) it was 100%.

Consider `CCc1ncnc(NCc2ccc(Oc3ncc(Cl)cc3Cl)cc2)c1Cl` [CK64, reference compound], for which the pest or weed control at 600 µg/mL with armyworm (72 h, 600 mg/L, read-out: Insecticidal activity against armyworm (%)) stood at 0%; in the assay on carmine spider mite (Tetranychus cinnabarinus, 72 h, 600 mg/L, contrastive test, read-out: Insecticidal activity against carmine spider mite (% )), 56%.

As for `CCc1ncnc(NCCc2ccc(Oc3ncc(C(F)(F)F)cc3Cl)c(Cl)c2)c1Cl` [Compound I-1472], the “protectant activity against wheat powdery mildew in vivo” value in the assay on wheat powdery mildew (100 ppm) and in the assay on wheat powdery mildew (400 ppm) was 100% each time. For the same compound, the “control (test results against green peach aphid)” value in assay [1] (10 ppm), in assay [1] (100 ppm) and in assay [1] (600 ppm) was 100% throughout. In the assay on corn rust (400 ppm), the “protectant activity against corn rust in vivo” value is listed as 100%. In addition, the “control (test results against armyworm)” value in the assay with armyworm (600 ppm, mortality after 72 h) was determined as 100%. The “control against carmine spider mite” value in the assay on carmine spider mite (600 ppm) was determined as 100%.

For the compound `Cc1ncnc(NCCc2ccc(Oc3ccc(C(F)(F)F)cn3)cc2)c1Br` [Compound I-1762], the “protectant activity against cucumber downy mildew in vivo” value in the assay with cucumber downy mildew (400 ppm) came out at 100%. In the assay with wheat powdery mildew (400 ppm), the “protectant activity against wheat powdery mildew in vivo” value was determined as 100%. The “control (test results against green peach aphid)” value in assay [1] (5 ppm), in assay [1] (10 ppm), in assay [1] (100 ppm) and in assay [1] (600 ppm) was 100% throughout. For the same compound, the “protectant activity against corn rust in vivo” value in the assay on corn rust (400 ppm) came out at 100%. In addition, the “control against carmine spider mite” value with carmine spider mite (100 ppm) and in the assay on carmine spider mite (600 ppm) was 100% throughout.

As to `FC(F)(F)c1ccc(Oc2ccc(CCNc3ncnc(C(F)(F)F)c3Cl)cc2)nc1` [Compound I-2748], the pest or weed control at 50 ppm in the assay with cucumber downy mildew (Cucumis sativus, 168 h, read-out: protectant activity against cucumber downy mildew in vivo, 50 ppm) is 100%. Also, in the assay with cucumber downy mildew (Cucumis sativus, 168 h), the pest or weed control at 100 ppm was determined as 100%. Besides, the pest or weed control at 400 ppm with cucumber downy mildew (Cucumis sativus, 168 h, read-out: protectant activity against cucumber downy mildew in vivo, 400 ppm) was 100%; in the assay with wheat powdery mildew (Triticum aestivum, 168 h, read-out: protectant activity against wheat powdery mildew in vivo, 400 ppm), 80 to 99%; in the assay on corn rust (Zea mays, 168 h, read-out: protectant activity against corn rust in vivo, 400 ppm) it was 80 to 99%. The pest or weed control at 600 ppm in assay [1] (Myzus persicae, foliar, 48 h, 600 ppm) was 100%; in the assay on armyworm (72 h, 600 ppm, mortality after 72 h), 80 to 99%.

Take `Cc1ncnc(NCCc2ccc(Oc3ccc(C(F)(F)F)cn3)cc2)c1Cl.Cl` [Compound I-6730]: the “protectant activity against cucumber downy mildew in vivo” value with cucumber downy mildew (25 ppm), in the assay on cucumber downy mildew (50 ppm) and in the assay with cucumber downy mildew (400 ppm) was 100% in each case. Moreover, in the assay on cucumber downy mildew (Cucumis sativus, 168 h), the pest or weed control at 100 ppm was 100%. Also, the “protectant activity against wheat powdery mildew in vivo” value in the assay with wheat powdery mildew (25 ppm), in the assay with wheat powdery mildew (100 ppm) and with wheat powdery mildew (400 ppm) was 100% each time. In the assay on wheat powdery mildew (Triticum aestivum, 168 h, read-out: protectant activity against wheat powdery mildew in vivo, 6.25 ppm), the pest or weed control at 6.25 ppm lay in the range of 80 to 99%. Further, the “control (test results against green peach aphid)” value in assay [1] (600 ppm) is reported as 100%. In addition, the “protectant activity against corn rust in vivo” value in the assay with corn rust (400 ppm) is on record as 100%. Also, the “control against carmine spider mite” value in the assay with carmine spider mite (600 ppm) was found to be 100%.

Take `CCc1ncnc(NCCc2ccc(Oc3ccc(C(F)(F)F)cn3)cc2)c1Cl` [Compound I-6741]: the “protectant activity against wheat powdery mildew in vivo” value with wheat powdery mildew (100 ppm) and in the assay with wheat powdery mildew (400 ppm) was 100% in each case. In addition, the “control (test results against green peach aphid)” value in assay [1] (5 ppm), in assay [1] (10 ppm), in assay [1] (100 ppm) and in assay [1] (600 ppm) was 100% each time. In addition, the “protectant activity against corn rust in vivo” value in the assay on corn rust (100 ppm) and in the assay on corn rust (400 ppm) was 100% throughout. Further, the “control (test results against armyworm)” value is listed as 100% in the assay with armyworm (100 ppm, mortality after 72 h) and 100% in the assay on armyworm (600 ppm, mortality after 72 h). Further, the “Insecticidal activity against carmine spider mite (% )” value (shortened to “Insecticidal activity … (% )”) came to 85% in the assay on carmine spider mite (10 mg/L, contrastive test); 100% in the assay with carmine spider mite (100 mg/L, contrastive test); 100% with carmine spider mite (600 mg/L, contrastive test). Also, the “control against carmine spider mite” value with carmine spider mite (100 ppm) and in the assay on carmine spider mite (600 ppm) was 100% each time.

Consider `Cc1ncnc(NCCc2ccc(Oc3ccc(Cl)cc3Cl)cc2)c1Cl` [II-21], for which the “protectant activity against cucumber downy mildew in vivo” value with cucumber downy mildew (50 ppm), in the assay with cucumber downy mildew (100 ppm) and in the assay on cucumber downy mildew (400 ppm) was 100% each time. Moreover, the “control (test results against green peach aphid)” value in assay [1] (600 ppm) turned out to be 100%. Also, the “protectant activity against corn rust in vivo” value in the assay with corn rust (100 ppm) and in the assay on corn rust (400 ppm) was 100% each time. In the assay with armyworm (600 ppm, mortality after 72 h), the “control (test results against armyworm)” value is on record as 100%. Moreover, the “control against carmine spider mite” value in the assay on carmine spider mite (100 ppm) and in the assay with carmine spider mite (600 ppm) was 100% throughout.

For the compound `CCc1ncnc(NCCc2ccc(Oc3ccc(Cl)cc3Cl)cc2)c1Cl` [II-299], the “protectant activity against cucumber downy mildew in vivo” value in the assay with cucumber downy mildew (100 ppm) and in the assay with cucumber downy mildew (400 ppm) was 100% in each case. Besides, the “protectant activity against wheat powdery mildew in vivo” value with wheat powdery mildew (400 ppm) is reported as 100%. Further, the “control (test results against green peach aphid)” value in assay [1] (100 ppm) and in assay [1] (600 ppm) was 100% each time. Further, the “protectant activity against corn rust in vivo” value with corn rust (100 ppm) and in the assay on corn rust (400 ppm) was 100% throughout. Besides, the “control (test results against armyworm)” value with armyworm (600 ppm, mortality after 72 h) came out at 100%. For the same compound, the “Insecticidal activity … (% )” value stood at 72% in the assay with carmine spider mite (10 mg/L, contrastive test); 100% in the assay on carmine spider mite (100 mg/L, contrastive test); 100% in the assay with carmine spider mite (600 mg/L, contrastive test). For the same compound, the “control against carmine spider mite” value in the assay on carmine spider mite (100 ppm) and in the assay on carmine spider mite (600 ppm) was 100% throughout.

Regarding `CCc1ncnc(NCCc2ccc(Oc3ccc(C(F)(F)F)cc3Cl)cc2)c1Cl` [II-432], in the assay with cucumber downy mildew (400 ppm), the “protectant activity against cucumber downy mildew in vivo” value stood at 100%. For the same compound, the “control effect against wheat powdery mildew (%)” value in the assay on wheat powdery mildew (0.4 mg/L) is on record as 50%; in the assay with wheat powdery mildew (1.6 mg/L) it was 80%; with wheat powdery mildew (6.25 mg/L) it was 100%; in the assay with wheat powdery mildew (25 mg/L) it was 100%; in the assay on wheat powdery mildew (100 mg/L), 100%; with wheat powdery mildew (400 mg/L), 100%. Besides, the “protectant activity against wheat powdery mildew in vivo” value with wheat powdery mildew (6.25 ppm), in the assay on wheat powdery mildew (25 ppm), in the assay with wheat powdery mildew (100 ppm) and in the assay with wheat powdery mildew (400 ppm) was 100% throughout. The “control (test results against green peach aphid)” value in assay [1] (100 ppm) and in assay [1] (600 ppm) was 100% throughout. Also, the “control effect against corn rust (%)” value is given as 15% in the assay with corn rust (0.4 mg/L); 75% in the assay with corn rust (1.6 mg/L); 100% in the assay with corn rust (6.25 mg/L); 100% in the assay on corn rust (25 mg/L); 100% with corn rust (100 mg/L); 100% in the assay with corn rust (400 mg/L). For the same compound, the “protectant activity against corn rust in vivo” value in the assay with corn rust (6.25 ppm), in the assay on corn rust (25 ppm), in the assay with corn rust (100 ppm) and with corn rust (400 ppm) was 100% each time. The “Insecticidal activity … (% )” value is 76% in the assay with carmine spider mite (10 mg/L, contrastive test); 100% in the assay with carmine spider mite (100 mg/L, contrastive test); 100% in the assay on carmine spider mite (600 mg/L, contrastive test). Further, the “control against carmine spider mite” value in the assay with carmine spider mite (100 ppm) and in the assay on carmine spider mite (600 ppm) was 100% in each case.

For the compound `CCc1ncnc(NCCc2ccc(Oc3ccc(S(N)(=O)=O)cc3)cc2)c1Cl` [II-556], the “control (test results against diamond back moth)” value in the assay with Diamond back moth was 100%.

For `Cc1ncnc(NCCc2ccc(Oc3cccc(F)c3)c(Cl)c2)c1Cl` [II-559], the “control (test results against armyworm)” value in the assay on armyworm (600 ppm, mortality after 72 h) is reported as 100%.

Values taken from patent US9770026B2, “Substituted pyrimidine compound and uses thereof” (Shenyang Sinochem Agrochemicals R&D Co., Ltd., priority 2012, dated 2017).
